Article PMC9917213, “New Insights into Bitopic Orthosteric/Allosteric Ligands of Cannabinoid Receptor Type 2” (International Journal of Molecular Sciences, 2023)
Where two headings read alike, the source gives them in different places.

How the values were obtained:
hCB2R [1] = target: T1, hCB2R (Homo sapiens, UniProt P34972); experiment: HitHunter cAMP assay: inhibition of forskolin-stimulated cAMP; assay type: cell-based; conditions: for Emax: read-out: Emax ± SEM
T1 construct: host or cells: CHO-K1 (HitHunter cAMP cell line)
Method: Chinese hamster ovary (CHO)-K1 cells untransfected or stably-expressing human cannabinoid CB2R (hCB2R) were used as previously reported. Cells were maintained at 37 °C, 5% CO2 in F-12/DMEM containing 1 mM L-glutamine, 10% fetal bovine serum (FBS), and 1% Pen/Strep and hygromycin B (300 μg/mL) and G418 (400 μg/mL). HitHunter® (cAMP) CHO-K1 cells stably expressing hCB2R from DiscoveRx (Eurofins, Fremont, CA, USA) were maintained at 37 °C, 5% CO2 in F-12 DMEM containing 10% FBS and 1% Pen/Strep with 800 μg/mL geneticin.
This method was conducted as described previously. The quantification of FSK-stimulated cAMP accumulation was performed using the DiscoveRx HitHunter assay. Twenty thousand cells/well were plated in low-volume 96-well plates and incubated overnight in Opti-MEM containing 1% FBS at 37 °C and 5% CO2. Opti-MEM media was then removed and replaced with cell assay buffer (DiscoveRx), and cells were co-treated at 37 °C with 10 μM FSK and ligands for 90 min. The cAMP antibody solution and cAMP working detection solutions were added to cells (DiscoveRx), and cells were incubated for 60 min at room temperature. cAMP solution A (DiscoveRx) was added, and cells were incubated for an additional 180 min at room temperature before chemiluminescence was measured on a Cytation5 plate reader (top read, gain 200, integration time 10,000 ms).
Post-hoc analyses were performed using Tukey’s (one-way ANOVA) test.

[2] = Plasma stability (LC-HRMS), rat plasma; assay type: in vitro ADME; conditions: 20 µM, 37 °C, up to 360 min
Method: (§1) Plasma stability was evaluated at the time points 0, 10, 30, 60, 120, 240, and 360 min over two species, rodent (rat) and human, and assessed by LC-HRMS. Results are expressed as a relative percentage (mean ± SD) with respect to the amount at t = 0 min. JR22a is stable both in rat and human plasma up to the last time point tested (360 min), as can be observed in Figure 6.
(§2) Stock solutions of 1 mg/mL JR22a and procainamide (used as internal standard, IS) were prepared in CH3OH and kept in ice during sample preparation and stored at −20 °C if not in use. The stability was tested in rat and human plasma obtained from Sigma-Aldrich (Milan, Italy).
(§3) JR22a (20 µM) was incubated with plasma at 37 °C under gentle shaking up to […] in triplicates. An aliquot of 20 µL was withdrawn from the mixture and diluted to a final volume of 200 µL of a 2 % TCA solution containing procainamide 1 µM at each time point: 10, 30, 60, 120, 240, and 360 min. Samples were kept in ice for 20 min and then centrifugated at 14,000 rpm for 10 min at 4 °C. The supernatant was diluted 1:1 with water and transferred in vials for the analysis. […]

HMC3 cells [3] = experiment: MTT cell viability assay; assay type: cell-based, human; conditions: 24 h
Method: Cell viability was evaluated by 3-(4,5-dimethylthiazol-2-yl)-2,5-diphenyltetrazolium bromide (MTT) reagent. Briefly, HMC3 cells were exposed to increasing concentrations of the compound, ranging from 0.1 to 25 µM. After 24 h, 0.5 mg/mL MTT reagent was added to each well, and the cells were incubated for 3 h at 37 °C. Then, 25 µL of the medium was removed from the wells, and 50 µL of DMSO was added. After 10 min incubation at 37 °C, absorbance at OD540 nm was determined with an automated microplate reader (BIO-TEK, Winooski, VT, USA). The percentage of cell viability was calculated as a percentage of vehicle-treated cells used as control.

[4] = Plasma stability (LC-HRMS), human plasma; assay type: in vitro ADME; conditions: 20 µM, 37 °C, up to 360 min
Method: as §1, §2, §3

HMC3 cells [5] = experiment: IL-6 release (ELISA) in LPS/TNFα stimulated HMC3 cells; assay type: cell-based, human
Method: The human microglial clone 3 cell line (HMC3) (ATCC® CRL-3304™) was cultured in high glucose DMEM supplemented with 10% FBS, streptomycin ([…]) and penicillin (100 U/mL) (Sigma-Aldrich, Milan, Italy). LPS (Cat. number L4391) and TNFα (Cat. number H8916) were purchased from Sigma-Aldrich (Milan, Italy).
The pro-inflammatory IL-6 levels were evaluated by a specific ELISA assay (RAB0306, Sigma-Aldrich, Milan, Italy) on collected culture media. Briefly, HMC3 cells were exposed to pretreatment with a test compound for 30 min followed by LPS (10 μg/mL)/TNFα (50 ng/mL) for 24 h, used as pro-inflammatory stimuli. Vehicle-treated cells were used as control. In competition experiments, the CB2R antagonist (SR144528, 1 μM; Cayman Chemical Company, Ann Arbor, MA, USA) or the CB2R positive allosteric modulator (EC21a, 10 μM) was administered 15 min before agonist administration.

hCB2R [6] = target: T1, hCB2R; experiment: [3H]CP55,940 radioligand displacement assay, hCB2R; assay type: binding
Method: (§4) We assessed ligand affinity for JR-22a at hCB1R and hCB2R using a […]
(§5) either receptor. […] At hCB2R, JR-22a
(§6) Figure S1. […] Membranes from CHO-K1 cells stably-expressing hCB1R (a) or […]
(§7) Data were fitted to a non-linear regression (three-parameter model, GraphPad v. 9.0). Data are mean ± S.E.M. of 3 independent experiments performed in triplicate.
(§8) Radioligand Displacement Assay.
(§9) Cells were scraped from flasks, centrifuged, and frozen at −80 °C until required.
(§10) This method was conducted as described previously. Cells were thawed, diluted in Tris buffer (50 mM Tris−HCl and 50 mM Tris−base), and homogenized in a 1 mL handheld homogenizer. hCB1R and hCB2R CHO−K1 cell membranes were collected by cavitation in a pressure cell and sedimented by ultracentrifugation. Pellets were resuspended in TME buffer (50 mM Tris−HCl, 5 mM MgCl2, 1 mM EDTA, pH 7.4), and protein concentration was measured via the Bradford method (Bio-Rad Laboratories, Mississauga, ON). Competition binding experiments were conducted with 1 nM [3H]CP55, 940 and Tris binding buffer (50 mM Tris−HCl, 50 mM Tris−base, 0.1% BSA, pH 7.4, 2 mL). Radioligand binding began with the addition of CHO−K1 cell membranes (50 μg protein per sample). […] Liquid scintillation spectrometry was used to quantify radioactivity. For competition binding experiments, specific binding was equal to the difference in radioactivity with or without 1 μM […]

hCB1R = target: T2, hCB1R (Homo sapiens, UniProt P21554); experiment: [3H]CP55,940 radioligand displacement assay, hCB1R; assay type: binding; conditions: CHO hCB1R membranes, 1 nM [3H]CP55,940, 0.10 nM-10 μM compound, 2 h
T2 construct: expressed in transfected cells; host or cells: CHO-K1 cell membranes
Method: as §4, §5, §6, §7, §8, §9, §10

[7] = pEC50 ± SEM, compound alone, CHO hCB2R, 10 μM FSK, 90 min

T1 sequence (P34972 whole entry): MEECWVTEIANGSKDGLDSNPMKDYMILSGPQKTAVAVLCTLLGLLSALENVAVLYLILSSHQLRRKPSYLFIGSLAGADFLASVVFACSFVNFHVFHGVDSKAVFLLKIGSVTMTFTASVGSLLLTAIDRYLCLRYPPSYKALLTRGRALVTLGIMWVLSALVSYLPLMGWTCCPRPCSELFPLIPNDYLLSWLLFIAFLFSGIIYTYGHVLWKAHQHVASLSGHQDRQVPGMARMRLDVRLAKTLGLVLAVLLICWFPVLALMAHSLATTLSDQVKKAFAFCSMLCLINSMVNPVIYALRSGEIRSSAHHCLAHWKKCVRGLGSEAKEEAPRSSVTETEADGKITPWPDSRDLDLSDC
T2 sequence (P21554 whole entry): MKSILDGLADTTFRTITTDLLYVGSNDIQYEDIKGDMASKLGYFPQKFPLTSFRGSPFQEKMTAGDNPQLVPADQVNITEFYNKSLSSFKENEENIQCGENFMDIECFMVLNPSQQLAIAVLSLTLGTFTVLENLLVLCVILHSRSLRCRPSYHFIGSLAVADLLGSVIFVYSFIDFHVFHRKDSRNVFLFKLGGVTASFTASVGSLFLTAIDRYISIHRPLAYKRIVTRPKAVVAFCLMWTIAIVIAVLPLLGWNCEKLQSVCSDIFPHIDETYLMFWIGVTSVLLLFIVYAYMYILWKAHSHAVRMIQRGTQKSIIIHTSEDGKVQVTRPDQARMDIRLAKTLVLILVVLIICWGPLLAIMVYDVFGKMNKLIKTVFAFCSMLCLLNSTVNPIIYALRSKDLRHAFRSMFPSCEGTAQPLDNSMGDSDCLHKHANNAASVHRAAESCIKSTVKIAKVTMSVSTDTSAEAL

In the case of Cc1c(Br)cn(CCCc2cn(CCCCC(=O)NC3CCC(NC(=O)c4cc5cccnc5n(Cc5ccc(F)cc5)c4=O)CC3)nn2)c(=O)c1NC(=O)C1CCCCCC1 (stereo not drawn) [JR14a], the “pEC50 ± SEM” value (hCB2R [1]; compound alone, CHO hCB2R, 10 μM FSK, 90 min) is reported as 7.6 ± 0.9, the EC50 (hCB2R [1]; compound alone, CHO hCB2R, 10 μM FSK, 90 min, read-out: EC50 (in brackets after pEC50) (converted)) is reported as 0.024 µM and the Emax (hCB2R [1]) is reported as 29 ± 5%.

With Cc1c(Br)cn(CCCCCCCn2c(=O)c(C(=O)NC3CCC(C)CC3)cc3cccnc32)c(=O)c1NC(=O)C1CCCCCC1 (stereo not drawn) [JR64a] the EC50 (hCB2R [1]; [7]) was 0.00251 µM and the Emax (hCB2R [1]) was 19 ± 6%.

For Cc1c(Br)cn(CCCc2cn(CCCCCn3c(=O)c(C(=O)NC4CCC(C)CC4)cc4cccnc43)nn2)c(=O)c1NC(=O)C1CCCCCC1 (stereo not drawn) [JR22a], the Plasma stability [2] was “stable”, the “Cell viability (MTT)” value (HMC3 cells [3]; 25 μM) was “significant inhibition of cell viability” and the “Cytotoxic effect (cell viability, MTT)” value (HMC3 cells [3]; 1 and 10 μM) was “no cytotoxic effect”. For the same compound, the EC50 (hCB2R [1]; EC50 (in brackets after pEC50), compound alone, CHO hCB2R, 10 μM FSK, 90 min) was 0.698 µM, the EC50 (hCB2R [1]; [7]) was 0.794 µM and the Emax (hCB2R [1]) was 53 ± 6%. For the same compound, the Plasma stability [4] was “stable”, the “IL-6 levels in the cultured medium” value (HMC3 cells [5]; 1 and 10 μM, 30 min pre-treatment, then LPS (10 μg/mL)/TNFα (50 ng/mL) 24 h) was “significant dose-dependent decrease” and the “Effect of EC21a co-treatment on ability of JR22a to prevent IL-6 release” value (HMC3 cells [5]; EC21a 10 μM, equimolar with JR22a, LPS/TNFα 24 h) was “did not interfere”. The “Effect of SR144528 pre-administration on the JR22a effect on IL-6 release” value (HMC3 cells [5]; SR144528 1 μM, 15 min before JR22a, LPS/TNFα 24 h) was “almost completely abolished”, the IC50 (hCB2R [6]) was 0.095 µM and the Ki (hCB2R [6]) was 0.095 µM. For the same compound, the “Displacement of [3H]CP55,940” value (hCB1R) was “not able to displace”.

In the case of Cc1c(Br)cn(Cc2ccc(F)cc2)c(=O)c1NC(=O)C1CCCCCC1 [EC21a, reference compound], the EC50 (hCB2R [1]) is reported as 0.03 µM, the “Activity alone in cAMP inhibition” value (hCB2R [1]; EC21a alone, Emax not different from 0) is reported as “inactive” and the Emax (hCB2R [1]) is reported as -14 ± 7%.
